Assay results published in paper PMC4849104, “Selected novel 5'-amino-2'-hydroxy-1, 3-diaryl-2-propen-1-ones arrest cell cycle of HCT-116 in G0/G1 phase” (EXCLI Journal, 2016).
Several values for one entry are separate records, joined by “and”; a condition that tells them apart may be missing. Identical values can stand only once.

What was measured:
[1] = system: human breast cancer (MCF-7) cells; test: Cytotoxicity by MTT assay on MCF-7; type: cell-based; conditions: for IC50 / IC50 (μM) MCF-7: MTT assay, 48 h incubation; for cytotoxicity against MCF-7 (in words): MTT, close to 200 µM including SEM
Method: (§1) Cytotoxicity of the synthesized compounds was evaluated in cancer cells namely human colon cancer (HCT-116) cells and human breast cancer (MCF-7) cells and normal kidney epithelial cells (Vero). These cells were originally procured from National Cancer Center for Cell Science, Pune, India and cultured in our lab using Dulbecco's modified Eagles medium (DMEM) containing 10 % fetal bovine serum (FBS) at 37 °C in an atmosphere containing 5 % CO2. All other chemicals used in this study were purchased from Sigma-Aldrich, USA.
(§2) Cell suspension containing 1 x 10^4 cells in 0.1 mL was seeded in a 96 well plate for 24 h. Test compounds were serially diluted with the medium to get a stock solution of 400 µM, 200 µM, 100 µM, 50 µM. After 24 h of incubation, 100 µL of test solution from respective stocks was added in triplicate and incubated for 48 h. After the treatment, drug-containing media was removed and 20 µL of MTT reagent (5 mg/mL in PBS) was added to each well. After 4 h of incubation at 37 °C, the MTT reagent was removed and 100 µL of 100 % DMSO was added to each well to solubilize formazan crystals. The optical density was measured using an ELISA plate reader at 540 nm and percentage cytotoxicity was calculated. (Kumar et al., 2012[15]; Zi and Simoneau, 2005[31]).

[2] = system: human colon cancer (HCT-116) cells; test: Cytotoxicity by MTT assay on HCT-116; type: cell-based; conditions: for IC50 / IC50 (μM) HCT-116: MTT assay, 48 h incubation; for cytotoxicity against HCT-116 (in words): MTT, close to 200 µM including SEM
Method: as §1, §2

[3] = system: normal kidney epithelial cells (Vero); test: Cytotoxicity by MTT assay on Vero; type: cell-based; conditions: 48 h incubation
Method: as §1, §2

HCT-116 cells [4] = test: Cell cycle analysis by flow cytometry with propidium iodide; type: cell-based, human; conditions: for phase of cell cycle arrest: HCT-116, AC-10 100 µM, AC-13 and AC-14 50 µM, doxorubicin 1 µM
Method: Flow cytometric analysis technique evaluates the effect of test compounds on cell cycle progression and check-points. Cells (1 x 10^6) were seeded in 25 cm^2 flasks and, after overnight adherence, incubated with test compounds. Then cells were detached by trypsinization and mixed with floating cells, centrifuged and washed with PBS. The cell pellets were fixed in 70 % ice-cold methanol and stored at -20 °C for 24 h. After that cell pellets were washed with PBS and isotonic PI solution [25 µM propidium iodide, 0.03 % NP-40 and 40 µg /ml RNase A] was added. The stained cells were analyzed using Accuri C6 flow cytometer (BD Biosciences, San Jose, CA, USA) with excitation at 488 nm and emission at 575/40 nm (Reddy et al., 2015[25]).

HCT-116 cells [5] = test: Acridine orange/ethidium bromide (AO/EB) dual nuclear staining, apoptotic index; type: cell-based, human; conditions: HCT-116, AO/EB; for percentage apoptotic nuclei (apoptotic index): mean ± SEM
Method: DNA-binding dyes Acridine orange (AO) and Ethidium bromide (EB) (Sigma, USA) were used for the morphological detection of apoptotic cells. 5 x 10^3 cells were seeded per well in 24-well plates with DMEM, containing 10 % FBS. After 24 h, cells were treated with selected concentrations of test compounds and incubated for 24 h. The media was removed and plate was washed with phosphate buffer saline (PBS, pH 7.4). Cells were fixed in ice-cold methanol for 20 min, washed with PBS again and stained with acridine orange and ethidium bromide stain (20/30 µg/ml). After incubation for 20 min at 37 °C, and washing with PBS thrice, the plate was observed under a fluorescent microscope for morphological changes in nucleus such as condensed chromatin and fragmented nuclei. The apoptotic index (AI) was calculated as % of apoptotic cells from randomly counted 100 cells in each treatment group (Reddy et al., 2015[25]).

Row | Molecule | melting point | IC50 ([1]; Homo sapiens, MCF7) | IC50 ([2]; Homo sapiens, HCT-116) | IC50 ([3]; Chlorocebus sabaeus, Vero) | IC50 (μM) MCF-7 [1] | cytotoxicity against HCT-116 (in words) [2] | cytotoxicity against MCF-7 (in words) [1] | further results
1 | Nc1ccc(O)c(C(=O)/C=C/c2ccccc2)c1 [AC-1, (E)-1-(5-Amino-2-Hydroxyphenyl)-3-phenylprop-2-en-1-one] | 126 °C | 1960 ± 776 µM | 299 ± 49.8 µM | > 200 µM |  |  |  | 
2 | Nc1ccc(O)c(C(=O)/C=C/c2ccc(Cl)cc2)c1 [AC-2, (E)-1-(5-Amino-2-Hydroxyphenyl)-3-(4-chlorophenyl)prop-2-en-1-one] | 138 °C |  | 205 ± 3.15 µM | > 200 µM | No activity | high cytotoxicity |  | 
3 | Nc1ccc(O)c(C(=O)/C=C/c2ccc(F)cc2)c1 [AC-3, (E)-1-(5-Amino-2-Hydroxyphenyl)-3-(4-fluorophenyl)prop-2-en-1-one] | 154 °C | 542 ± 38.5 µM | 174 ± 3.53 µM | > 200 µM |  | high cytotoxicity |  | 
4 | Nc1ccc(O)c(C(=O)/C=C/c2cccc([N+](=O)[O-])c2)c1 [AC-4, (E)-1-(5-Amino-2-Hydroxyphenyl)-3-(3-nitrophenyl)prop-2-en-1-one] | 112 °C |  | 309 ± 74.1 µM | > 200 µM | No activity |  |  | 
5 | CCOc1ccc(/C=C/C(=O)c2cc(N)ccc2O)cc1 [AC-5, (E)-1-(5-Amino-2-Hydroxyphenyl)-3-(4-ethoxyphenyl)prop-2-en-1-one] | 135 °C |  |  | > 200 µM | No activity |  |  | IC50 (μM) HCT-116 [2]: No activity
6 | COc1cccc(/C=C/C(=O)c2cc(N)ccc2O)c1 [AC-6, (E)-1-(5-Amino-2-Hydroxyphenyl)-3-(3-methoxyphenyl)prop-2-en-1-one] | 110 °C |  |  | > 200 µM | No activity |  |  | IC50 (μM) HCT-116 [2]: No activity
7 | COc1cc(/C=C/C(=O)c2cc(N)ccc2O)ccc1O [AC-7, (E)-1-(5-Amino-2-Hydroxyphenyl)-3-(4-hydroxy-3-methoxyphenyl)prop-2-en-1-one] | 136 °C | 248 ± 4.31 µM | 393 ± 77.9 µM | > 200 µM |  |  |  | 
8 | COc1ccc(/C=C/C(=O)c2cc(N)ccc2O)cc1O [AC-8, (E)-1-(5-Amino-2-Hydroxyphenyl)-3-(3-hydroxy-4-methoxyphenyl)prop-2-en-1-one] | 136 °C | 171 ± 12.9 µM | 123 ± 7.2 µM | > 200 µM |  | high cytotoxicity | high cytotoxicity | 
9 | COc1ccc(/C=C/C(=O)c2cc(N)ccc2O)cc1OC [AC-9, (E)-1-(5-Amino-2-Hydroxyphenyl)-3-(3,4-dimethoxyphenyl)prop-2-en-1-one] | 90 °C | 190 ± 10.5 µM | 186 ± 7.3 µM | > 200 µM |  | high cytotoxicity | high cytotoxicity | 
10 | Nc1ccc(O)c(C(=O)/C=C/c2ccccc2O)c1 [AC-10, (E)-1-(5-Amino-2-Hydroxyphenyl)-3-(2-hydroxyphenyl)prop-2-en-1-one] | 130 to 132 °C | 74.7 ± 3.5 µM | 95.4 ± 1.7 µM | > 200 µM |  | high cytotoxicity | high cytotoxicity | % cells in G0/G1 phase (M1) (HCT-116 cells [4]; HCT-116, 100 µM, 48 h treatment): 70.5%; phase of cell cycle arrest (HCT-116 cells [4]): G0/G1 phase; percentage apoptotic nuclei (apoptotic index) (HCT-116 cells [5]; 100 µM): 27 ± 3.21%
11 | COc1ccc(/C=C/C(=O)c2cc(N)ccc2O)cc1 [AC-11, (E)-1-(5-Amino-2-Hydroxyphenyl)-3-(4-methoxyphenyl)prop-2-en-1-one] | 102 to 104 °C | 1030 ± 60.6 µM |  | > 200 µM |  |  |  | IC50 (μM) HCT-116 [2]: No activity
12 | Nc1ccc(O)c(C(=O)/C=C/c2ccc3c(c2)OCO3)c1 [AC-13, (E)-1-(5-Amino-2-Hydroxyphenyl)-3-(3,4-methylenedioxyphenyl)prop-2-en-1-one] | 128 °C | 130 ± 3.8 µM | 42.1 ± 4 µM | > 200 µM |  | high cytotoxicity | high cytotoxicity | % cells in G0/G1 phase (M1) (HCT-116 cells [4]; HCT-116, 50 µM, 48 h treatment): 66.5%; % cells in G2/M phase (M3) (HCT-116 cells [4]; HCT-116, 50 µM, 48 h treatment): 25.1%; phase of cell cycle arrest (HCT-116 cells [4]): G0/G1 and G2/M phase; increase in apoptotic nuclei compared to medium control (HCT-116 cells [5]; 50 µM): about five; percentage apoptotic nuclei (apoptotic index) (HCT-116 cells [5]; 50 µM): 31% and 31 ± 4.16%
13 | COc1cc(/C=C/C(=O)c2cc(N)ccc2O)cc(OC)c1OC [AC-14, (E)-1-(5-Amino-2-Hydroxyphenyl)-3-(3,4,5-trimethoxyphenyl)prop-2-en-1-one] | 136 to 138 °C | 197 ± 7.9 µM | 62 ± 2.3 µM | > 200 µM |  | high cytotoxicity | high cytotoxicity | % cells in G0/G1 phase (M1) (HCT-116 cells [4]; HCT-116, 50 µM, 48 h treatment): 70.8%; phase of cell cycle arrest (HCT-116 cells [4]): G0/G1 phase; percentage apoptotic nuclei (apoptotic index) (HCT-116 cells [5]; 50 µM): 24.3 ± 3.53%
14 | Nc1ccc(O)c(C(=O)/C=C/c2ccc(OCc3ccccc3)cc2)c1 [AC-15, (E)-1-(5-Amino-2-Hydroxyphenyl)-3-(4-benzyloxyphenyl)prop-2-en-1-one] | 136 to 138 °C |  | 211 ± 26 µM | > 200 µM | No activity |  |  | 
15 | COc1cccc2c1C(=O)c1c(O)c3c(c(O)c1C2=O)C[C@@](O)(C(=O)CO)C[C@@H]3O[C@H]1C[C@H](N)[C@H](O)[C@H](C)O1 [doxorubicin, reference compound] |  |  |  |  |  |  |  | more accumulation of cells in G2/M phase as compared to normal control (HCT-116 cells [4]; HCT-116, 1 µM (standard), normal control 23.0 %): 7.4%; phase of cell cycle arrest (HCT-116 cells [4]): G2/M phase
16 | (E)-1-(5-Amino-2-Hydroxyphenyl)-3-(3,4-dichlorophenyl)prop-2-en-1-one [AC-12] |  |  |  |  |  |  |  | IC50 [1]: 236 ± 9.8 µM; IC50 [2]: 169 ± 66.7 µM; IC50 [3]: > 200 µM
